According to ChEMBL document CHEMBL2434896, “Carbonic anhydrase inhibitors. Synthesis of heterocyclic 4-substituted pyridine-3-sulfonamide derivatives and their inhibition of the human cytosolic isozymes I and II and transmembrane tumor-associated isozymes IX and XII” (Eur J Med Chem, 2013):
Calls of active or inactive are those of the source. The rule behind the calls is not given here.

Assays:
OVCAR-5 = test: Growth inhibition of human OVCAR5 cells at 10 uM after 48 hrs by sulforhodamine B assay; type: functional
SR = test: Growth inhibition of human SR cells at 10 uM after 48 hrs by sulforhodamine B assay; type: functional; conditions: read-out: GI
KM12 = test: Growth inhibition of human KM12 cells at 10 uM after 48 hrs by sulforhodamine B assay; type: functional
HOP-62 = test: Growth inhibition of human HOP62 cells at 10 uM after 48 hrs by sulforhodamine B assay; type: functional
RXF 393 = test: Growth inhibition of human RXF393 cells at 10 uM after 48 hrs by sulforhodamine B assay; type: functional
MDA-MB-468 = test: Growth inhibition of human MDA-MB-468 cells at 10 uM after 48 hrs by sulforhodamine B assay; type: functional
MCF7 = test: Growth inhibition of human MCF7 cells at 10 uM after 48 hrs by sulforhodamine B assay; type: functional
HL-60(TB) = test: Growth inhibition of human HL-60(TB) cells at 10 uM after 48 hrs by sulforhodamine B assay; type: functional; conditions: HL-60, 48 h, read-out: GI
T47D = test: Growth inhibition of human T47D cells at 10 uM after 48 hrs by sulforhodamine B assay; type: functional; conditions: read-out: GI
Hs-578T = test: Growth inhibition of human Hs 578T cells at 10 uM after 48 hrs by sulforhodamine B assay; type: functional
HCC 2998 = test: Growth inhibition of human HCC2998 cells at 10 uM after 48 hrs by sulforhodamine B assay; type: functional
SK-MEL-28 = test: Growth inhibition of human SK-MEL-28 cells at 10 uM after 48 hrs by sulforhodamine B assay; type: functional, cell-based
CAKI-1 = test: Growth inhibition of human CAKI-1 cells at 10 uM after 48 hrs by sulforhodamine B assay; type: functional; conditions: CAKI-1, 48 h, read-out: GI
NCI-H322M = test: Growth inhibition of human NCI-H322M cells at 10 uM after 48 hrs by sulforhodamine B assay; type: functional
HCT-116 = test: Growth inhibition of human HCT116 cells at 10 uM after 48 hrs by sulforhodamine B assay; type: functional; conditions: HCT-116, 48 h, read-out: GI
ACHN = test: Growth inhibition of human ACHN cells at 10 uM after 48 hrs by sulforhodamine B assay; type: functional
SNB-19 = test: Growth inhibition of human SNB19 cells at 10 uM after 48 hrs by sulforhodamine B assay; type: functional
A498 = test: Growth inhibition of human A498 cells at 10 uM after 48 hrs by sulforhodamine B assay; type: functional
HT-29 = test: Growth inhibition of human HT-29 cells at 10 uM after 48 hrs by sulforhodamine B assay; type: functional
SF-539 = test: Growth inhibition of human SF539 cells at 10 uM after 48 hrs by sulforhodamine B assay; type: functional; conditions: SF-539, 48 h, read-out: GI
786-0 = test: Growth inhibition of human 786-0 cells at 10 uM after 48 hrs by sulforhodamine B assay; type: functional
COLO 205 = test: Growth inhibition of human COLO205 cells at 10 uM after 48 hrs by sulforhodamine B assay; type: functional
HOP-92 = test: Growth inhibition of human HOP92 cells at 10 uM after 48 hrs by sulforhodamine B assay; type: functional
SK-MEL-5 = test: Growth inhibition of human SK-MEL-5 cells at 10 uM after 48 hrs by sulforhodamine B assay; type: functional
TK-10 = test: Growth inhibition of human TK10 cells at 10 uM after 48 hrs by sulforhodamine B assay; type: functional
MDA-MB-231 = test: Growth inhibition of human MDA-MB-231 cells at 10 uM after 48 hrs by sulforhodamine B assay; type: functional
SK-MEL-2 = test: Growth inhibition of human SK-MEL-2 cells at 10 uM after 48 hrs by sulforhodamine B assay; type: functional
M14 = test: Growth inhibition of human M14 cells at 10 uM after 48 hrs by sulforhodamine B assay; type: functional
[1] = Growth inhibition of human EKVX cells at 10 uM after 48 hrs by sulforhodamine B assay; type: functional; conditions: read-out: GI
SK-OV-3 = test: Growth inhibition of human SKOV3 cells at 10 uM after 48 hrs by sulforhodamine B assay; type: functional
SW-620 = test: Growth inhibition of human SW620 cells at 10 uM after 48 hrs by sulforhodamine B assay; type: functional
LOX IMVI = test: Growth inhibition of human LOXIMVI cells at 10 uM after 48 hrs by sulforhodamine B assay; type: functional
NCI-H23 = test: Growth inhibition of human NCI-H23 cells at 10 uM after 48 hrs by sulforhodamine B assay; type: functional
SF-268 = test: Growth inhibition of human SF268 cells at 10 uM after 48 hrs by sulforhodamine B assay; type: functional
MDA-MB-435 = test: Growth inhibition of human MDA-MB-435 cells at 10 uM after 48 hrs by sulforhodamine B assay; type: functional
UO-31 = test: Growth inhibition of human UO31 cells at 10 uM after 48 hrs by sulforhodamine B assay; type: functional; conditions: UO-31, 48 h, read-out: GI
K562 = test: Growth inhibition of human K562 cells at 10 uM after 48 hrs by sulforhodamine B assay; type: functional
RPMI-8226 = test: Growth inhibition of human RPMI8226 cells at 10 uM after 48 hrs by sulforhodamine B assay; type: functional; conditions: RPMI-8226, 48 h, read-out: GI
BT-549 = test: Growth inhibition of human BT549 cells at 10 uM after 48 hrs by sulforhodamine B assay; type: functional; conditions: BT-549, 48 h, read-out: GI
SN12C = test: Growth inhibition of human SN12C cells at 10 uM after 48 hrs by sulforhodamine B assay; type: functional
Carbonic anhydrase 9 = Carbonic anhydrase 9 (Homo sapiens, UniProt Q16790); test: Inhibition of human carbonic anhydrase 9 after 15 mins by stopped flow CO2 hydration assay
CCRF-CEM = test: Growth inhibition of human CCRF-CEM cells at 10 uM after 48 hrs by sulforhodamine B assay; type: functional; conditions: read-out: GI
NCI-H460 = test: Growth inhibition of human NCI-H460 cells at 10 uM after 48 hrs by sulforhodamine B assay; type: functional
SNB-75 = test: Growth inhibition of human SNB75 cells at 10 uM after 48 hrs by sulforhodamine B assay; type: functional; conditions: SNB-75, 48 h, read-out: GI
SF-295 = test: Growth inhibition of human SF295 cells at 10 uM after 48 hrs by sulforhodamine B assay; type: functional; conditions: SF-295, 48 h, read-out: GI
OVCAR-4 = test: Growth inhibition of human OVCAR4 cells at 10 uM after 48 hrs by sulforhodamine B assay; type: functional
MOLT-4 = test: Growth inhibition of human MOLT4 cells at 10 uM after 48 hrs by sulforhodamine B assay; type: functional; conditions: MOLT-4, 48 h, read-out: GI
IGROV-1 = test: Growth inhibition of human IGROV1 cells at 10 uM after 48 hrs by sulforhodamine B assay; type: functional
NCI-H226 = test: Growth inhibition of human NCI-H226 cells at 10 uM after 48 hrs by sulforhodamine B assay; type: functional
OVCAR-3 = test: Growth inhibition of human OVCAR3 cells at 10 uM after 48 hrs by sulforhodamine B assay; type: functional
PC-3 = test: Growth inhibition of human PC3 cells at 10 uM after 48 hrs by sulforhodamine B assay; type: functional
Malme-3M = test: Growth inhibition of human MALME-3M cells at 10 uM after 48 hrs by sulforhodamine B assay; type: functional; conditions: read-out: GI
NCI/ADR-RES = test: Growth inhibition of human NCI-ADR-RES cells at 10 uM after 48 hrs by sulforhodamine B assay; type: functional
HCT-15 = test: Growth inhibition of human HCT15 cells at 10 uM after 48 hrs by sulforhodamine B assay; type: functional
UACC-62 = test: Growth inhibition of human UACC62 cells at 10 uM after 48 hrs by sulforhodamine B assay; type: functional
NCI-H522 = test: Growth inhibition of human NCI-H522 cells at 10 uM after 48 hrs by sulforhodamine B assay; type: functional; conditions: NCI-H522, 48 h, read-out: GI
DU-145 = test: Growth inhibition of human DU145 cells at 10 uM after 48 hrs by sulforhodamine B assay; type: functional

NS(=O)(=O)c1cnccc1N1CCN(c2ccccc2)CC1
growth inhibition (GI) (OVCAR-5): inactive | inhibition of growth at 10 µM (SR): 8% | growth inhibition (GI) (KM12): inactive | growth inhibition (GI) (HOP-62): inactive | growth inhibition (GI) (RXF 393): inactive | growth inhibition (GI) (MDA-MB-468): inactive | growth inhibition (GI) (MCF7): inactive | inhibition of growth at 10 µM (HL-60(TB)): 2% | inhibition of growth at 10 µM (T47D): 1% | growth inhibition (GI) (Hs-578T): inactive | growth inhibition (GI) (HCC 2998): inactive | growth inhibition (GI) (SK-MEL-28): inactive | inhibition of growth at 10 µM (CAKI-1): 8% | growth inhibition (GI) (NCI-H322M): inactive | inhibition of growth at 10 µM (HCT-116): 1% | growth inhibition (GI) (ACHN): inactive | growth inhibition (GI) (SNB-19): inactive | growth inhibition (GI) (A498): inactive | growth inhibition (GI) (HT-29): inactive | inhibition of growth at 10 µM (SF-539): 3% | growth inhibition (GI) (786-0): inactive | growth inhibition (GI) (COLO 205): inactive | growth inhibition (GI) (HOP-92): inactive | growth inhibition (GI) (SK-MEL-5): inactive | growth inhibition (GI) (TK-10): inactive | growth inhibition (GI) (MDA-MB-231): inactive | growth inhibition (GI) (SK-MEL-2): inactive | growth inhibition (GI) (M14): inactive | inhibition of growth at 10 µM [1]: 4% | growth inhibition (GI) (SK-OV-3): inactive | growth inhibition (GI) (SW-620): inactive | growth inhibition (GI) (LOX IMVI): inactive | growth inhibition (GI) (NCI-H23): inactive | growth inhibition (GI) (SF-268): inactive | growth inhibition (GI) (MDA-MB-435): inactive | inhibition of growth at 10 µM (UO-31): 14% | growth inhibition (GI) (K562): inactive | inhibition of growth at 10 µM (RPMI-8226): 10% | inhibition of growth at 10 µM (BT-549): 4% | growth inhibition (GI) (SN12C): inactive | Ki (Carbonic anhydrase 9): 124 nM | inhibition of growth at 10 µM (CCRF-CEM): 7% | growth inhibition (GI) (NCI-H460): inactive | inhibition of growth at 10 µM (SNB-75): 1% | inhibition of growth at 10 µM (SF-295): 4% | growth inhibition (GI) (OVCAR-4): inactive | inhibition of growth at 10 µM (MOLT-4): 5% | growth inhibition (GI) (IGROV-1): inactive | growth inhibition (GI) (NCI-H226): inactive | growth inhibition (GI) (OVCAR-3): inactive | growth inhibition (GI) (PC-3): inactive | inhibition of growth at 10 µM (Malme-3M): 8% | growth inhibition (GI) (NCI/ADR-RES): inactive | growth inhibition (GI) (HCT-15): inactive | growth inhibition (GI) (UACC-62): inactive | inhibition of growth at 10 µM (NCI-H522): 1% | growth inhibition (GI) (DU-145): inactive
